For the first assay, the target named is AMPK. Briefly: AMPK activation, enzyme-linked immunosorbent assay. The assay is classed as biochemical. The settings on record: compounds of Table 1 (Table 6). The procedure: Compounds of Table 1 were assayed for their ability to activate AMPK using an enzyme-linked immunosorbent assay.
Compounds of Table 2 were assayed for their ability to activate AMPK using an enzyme-linked immunosorbent assay.
Compounds of Table 3 were assayed for their ability to activate AMPK using an enzyme-linked immunosorbent assay.
Compounds of Table 4 were assayed for their ability to activate AMPK using an enzyme-linked immunosorbent assay.
Compounds of Table 5 were assayed for their ability to activate AMPK using an enzyme-linked immunosorbent assay.
Molecule `N#Cc1ccc(N2CCC(Oc3ccc(C(=O)NC4CCN(Cc5cccnc5)CC4)nc3)CC2)cc1` [1-6, N-(1-(pyridin-3-ylmethyl)piperidin-4-yl)-5-(1-(4-cyanophenyl)piperidin-4-yloxy)picolinamide] registered an EC50 of 0.1 to 0.5 µM.

`CC(C)(C)OC(=O)N1CCC(NC(=O)c2cc3cc(OC4CCN(c5ccc(C(F)(F)F)cc5)CC4)ccc3s2)CC1` [1-149, tert-butyl 4-(5-(1-(4-(trifluoromethyl)phenyl)piperidin-4-yloxy)benzo[b]thiophene-2-carboxamido)piperidine-1-carboxylate] yielded an EC50 of less than 0.1 µM.

On to `CC(C)(C)OC(=O)NCCCNC(=O)c1ccc(OC2CCN(c3ccc(C(F)(F)F)cc3)CC2)cn1` [1-49, tert-butyl 3-(5-(1-(4-(trifluoromethyl)phenyl)piperidin-4-yloxy)picolinamido) propylcarbamate], for which the EC50 is less than 0.1 µM.

Regarding `O=C(N[C@@H]1CCN(C(=O)c2ccncc2)C1)c1cc2cc(OC3CCN(c4ccc(C(F)(F)F)cc4)CC3)ccc2o1` [1-125, (R)-N-(1-isonicotinoylpyrrolidin-3-yl)-5-(1-(4-(trifluoromethyl)phenyl)piperidin-4-yloxy)benzofuran-2-carboxamide], the EC50 lay within 1 to 5 µM.

In turn, `Cc1c(C(=O)NC2CCNCC2)oc2cc(OC3CCN(c4ccc(C(F)(F)F)cc4)CC3)ccc12` [1-62, 3-methyl-N-(piperidin-4-yl)-6-(1-(4-(trifluoromethyl)phenyl)piperidin-4-yloxy)benzofuran-2-carboxamide] yielded an EC50 of 5 to 10 µM.

In turn, `NC(=O)c1ccc(CN2CCC(Oc3ccc4oc(C(=O)NC5CCN(Cc6ccncc6)CC5)cc4c3)CC2)cc1` [1-131, 5-(1-(4-carbamoylbenzyl)piperidin-4-yloxy)-N-(1-(pyridin-4-ylmethyl)piperidin-4-yl)benzofuran-2-carboxamide] had a half-maximal effective concentration (EC50) of 1 to 5 µM.

With `O=C(NC1CCN(Cc2ccncc2)CC1)c1cncc(OC2CCN(c3ccc(C(F)(F)F)cc3)CC2)c1` [1-14, N-(1-(pyridin-4-ylmethyl)piperidin-4-yl)-5-(1-(4-(trifluoromethyl)phenyl)piperidin-4-yloxy)nicotinamide], the EC50 was less than 0.1 µM.

The molecule `Fc1ccc(CN2CCC(NC3CCc4cc(OC5CCN(c6ccc(C(F)(F)F)cc6)CC5)ccc43)CC2)cc1` (stereo not drawn) [1-159, 1-(4-fluorobenzyl)-N-(5-(1-(4-(trifluoromethyl)phenyl)piperidin-4-yloxy)-2,3-dihydro-1H-inden-1-yl)piperidin-4-amine] came in with an EC50 of 0.1 to 0.5 µM.

In the case of `O=S(=O)(NC1CCN(Cc2cccc(C(F)(F)F)c2)CC1)c1ccc(OC2CCN(c3ccc(C(F)(F)F)cc3)CC2)nc1` [1-59, N-(1-(3-(trifluoromethyl)benzyl)piperidin-4-yl)-6-(1-(4-(trifluoromethyl)phenyl)piperidin-4-yloxy)pyridine-3-sulfonamide], the EC50 lay in the range of 0.1 to 0.5 µM.

For the molecule `O=C(NC1CCN(Cc2ccc(F)cc2)CC1)c1cc2ccc(OC3CCN(c4ccc(OC(F)(F)F)cc4)CC3)cc2o1` [1-94, N-(1-(4-fluorobenzyl)piperidin-4-yl)-6-(1-(4-(trifluoromethoxy)phenyl)piperidin-4-yloxy)benzofuran-2-carboxamide], the EC50 is less than 0.1 µM.

In turn, `Cc1c(C(=O)NC2CCN(Cc3cccc(C#N)c3)CC2)oc2cc(OC3CCN(c4ccc(C(F)(F)F)cc4)CC3)ccc12` [1-66, N-(1-(3-cyanobenzyl)piperidin-4-yl)-3-methyl-6-(1-(4-(trifluoromethyl)phenyl)piperidin-4-yloxy)benzofuran-2-carboxamide] registered an EC50 of less than 0.1 µM.

The assay is the same for the next values; noted with them: compounds of Table 2 (Table 7).
Molecule `O=C(NC1CCN(Cc2ccc(C(F)(F)F)cc2)CC1)c1ccc2[nH]c3c(c2c1)CN(Cc1ccccc1)CC3` [2-5, 2-benzyl-N-(1-(4-trifluoromethylbenzyl)piperidin-4-yl)-2,3,4,5-tetrahydro-1H-pyrido[4,3-b]indole-8-carboxamide] registered an EC50 of 1 to 5 µM.

Molecule `O=C(NC1CCN(c2ccc(F)cc2)CC1)c1ccc2[nH]c3c(c2c1)CN(Cc1ccc(C(F)(F)F)cc1)CC3` [2-15, N-(1-(4-fluorophenyl)piperidin-4-yl)-2-(4-(trifluoromethyl)benzyl)-2,3,4,5-tetrahydro-1H-pyrido[4,3-b]indole-8-carboxamide] displayed an EC50 of less than 0.5 µM.

`NC(=O)c1ccc(CN2CCc3[nH]c4ccc(C(=O)NC5CCN(C(=O)c6ccncc6)CC5)cc4c3C2)cc1` [2-46, 2-(4-carbamoylbenzyl)-N-(1-isonicotinoylpiperidin-4-yl)-2,3,4,5-tetrahydro-1H-pyrido [4,3-b]indole-8-carboxamide] gave an EC50 of more than 100 µM.

Molecule `O=C(NC1CCN(Cc2ccc(C(F)(F)F)cc2)CC1)c1ccc2[nH]c3c(c2c1)CN(Cc1ccc(F)cc1)CC3` [2-10, N-(1-(4-trifluoro-methylbenzyl)piperidin-4-yl)-2-(4-fluorobenzyl)-2,3,4,5-tetrahydro-1H-pyrido[4,3-b] indole-8-carboxamide] gave an EC50 of 0.5 to 1 µM.

The same assay, now with this note: compounds of Table 3 (Table 8).
In the case of `O=C(NC1CCN(C(=O)c2ccc(F)cc2)CC1)c1nc2ccc(OC3CCN(c4ccc(C(F)(F)F)cc4)CC3)cc2o1` [3-4, N-(1-(4-fluorobenzoyl)piperidin-4-yl)-6-(1-(4-(trifluoromethyl)phenyl)piperidin-4-yloxy)benzo[d]oxazole-2-carboxamide], the EC50 is less than 0.1 µM.

`N#Cc1ccc(CN2CCC(NC(=O)c3cnc(OC4CCN(c5ccc(C#N)cc5)CC4)s3)CC2)cc1` [3-24, N-(1-(4-cyanobenzyl)piperidin-4-yl)-2-(1-(4-cyanophenyl)piperidin-4-yloxy)thiazole-5-carboxamide]: the EC50 was less than 0.1 µM.

Molecule `CC(C)(C)OC(=O)N1CCC(Oc2ncc(C(=O)NC3CCN(Cc4ccc(C#N)cc4)CC3)s2)CC1` [3-26, tert-butyl 4-(5-(1-(4-cyanobenzyl)piperidin-4-ylcarbamoyl)thiazol-2-yloxy)piperidine-1-carboxylate] registered an EC50 of 1 to 10 µM.

Regarding `N#Cc1ccc(CN2CCC(NC(=O)c3nc4ccc(OC5CCN(c6ccc(C(F)(F)F)cc6)CC5)cc4o3)CC2)cc1` [3-2, N-(1-(4-cyanobenzyl)piperidin-4-yl)-6-(1-(4-(trifluoromethyl)phenyl)piperidin-4-yloxy)benzo[d]oxazole-2-carboxamide], the EC50 is less than 0.1 µM.

On to `N#Cc1ccc(C(=O)N2CC3CC2CN3C(=O)c2nc3ccc(OC4CCN(c5ccc(C(F)(F)F)cc5)CC4)cc3o2)cc1` (stereo not drawn) [3-12, 4-(5-(6-(1-(4-(trifluoromethyl)phenyl)piperidin-4-yloxy)benzo[d]oxazole-2-carbonyl)-2,5-diazabicyclo[2.2.1]heptane-2-carbonyl)benzonitrile], for which the EC50 was less than 0.1 µM.

Still in this assay, the particulars now being: compounds of Table 5 (Table 10).
For `O=C(NC1CCN(Cc2ccccc2)CC1)c1cccc(OC2CCN(Cc3ccc(C(F)(F)F)cc3)CC2)c1` [5-52, N-(1-benzylpiperidin-4-yl)-3-(1-(4-(trifluoromethyl)benzyl)piperidin-4-yloxy)benzamide], the EC50 was 1 to 10 µM.

In turn, `COc1ccc(CN2CCC(Oc3ccc(C(=O)NCCCN4CCOCC4)cc3Cl)CC2)cc1` [5-101, 3-chloro-4-(1-(4-methoxybenzyl)piperidin-4-yloxy)-N-(3-morpholinopropyl)benzamide] yielded an EC50 of 10 to 20 µM.

In the case of `O=C(NC1CCN(Cc2ccccc2)CC1)c1ccc(OC2CCN(C(=O)c3ccc(F)cc3)CC2)c(Cl)c1` [5-22, N-(1-benzylpiperidin-4-yl)-3-chloro-4-(1-(4-fluorobenzoyl)piperidin-4-yloxy)benzamide], the EC50 lay within 1 to 10 µM.

`O=C(NC1CCN(Cc2ccc(F)cc2)CC1)c1ccc(OC2CCN(Cc3ccc(Cl)cc3)CC2)c(Cl)c1` [5-66, 3-chloro-4-(1-(4-chlorobenzyl)piperidin-4-yloxy)-N-(1-(4-fluorobenzyl)piperidin-4-yl)benzamide] came in with an EC50 of less than 1 µM.

`Cc1ccc(CN2CCC(Oc3ccc(C(=O)NC4CCN(Cc5ccccc5)CC4)cc3F)CC2)cc1` [5-42, N-(1-benzylpiperidin-4-yl)-3-fluoro-4-(1-(4-methylbenzyl)piperidin-4-yloxy)benzamide] returned an EC50 of less than 1 µM.

`N#Cc1ccc(CN2CCC(Oc3ccc(C(=O)NC4CCNCC4)cc3)CC2)cc1` [5-79, 4-(1-(4-cyanobenzyl)piperidin-4-yloxy)-N-(piperidin-4-yl)benzamide] displayed an EC50 of more than 100 µM.

For `CC(C)(C)c1ccc(CN2CCC(Oc3ccc(C(=O)NC4CCN(c5ccccc5)CC4)cc3F)CC2)cc1` [5-36, 4-(1-(4-tert-butylbenzyl)piperidin-4-yloxy)-3-fluoro-N-(1-phenylpiperidin-4-yl)benzamide], the EC50 is less than 1 µM.

Regarding `N#Cc1ccc(CN2CCC(Oc3ccc(C(=O)NC4CCN(Cc5ccccn5)CC4)cc3)CC2)cc1` [5-85, 4-(1-(4-cyanobenzyl)piperidin-4-yloxy)-N-(1-(pyridin-2-ylmethyl)piperidin-4-yl)benzamide], the EC50 is less than 1 µM.

With `Cc1ccc(CN2CCC(Oc3ccc(C(=O)NCCCN4CCOCC4)cc3)CC2)cc1` [5-104, 4-(1-(4-methylbenzyl)piperidin-4-yloxy)-N-(3-morpholinopropyl)benzamide], the EC50 is 10 to 20 µM.

In the case of `CC(C)(C)C(=O)N1CCC(Oc2ccc(C(=O)NC3CCN(Cc4ccccc4)CC3)cc2Cl)CC1` [5-91, N-(1-benzylpiperidin-4-yl)-3-chloro-4-(1-pivaloylpiperidin-4-yloxy)benzamide], the EC50 was less than 1 µM.

`N#Cc1ccc(CN2CCC(Oc3ccc(C(=O)NC4CCN(Cc5ccccc5)CC4)cc3Cl)CC2)cc1` [5-67, N-(1-benzylpiperidin-4-yl)-3-chloro-4-(1-(4-cyanobenzyl)piperidin-4-yloxy)benzamide] gave an EC50 of less than 1 µM.

For `COc1ccc(CN2CCC(Oc3ccc(C(=O)NCCCNC(=O)OC(C)(C)C)cc3Cl)CC2)cc1` [5-97, tert-butyl 3-(3-chloro-4-(1-(4-methoxybenzyl)piperidin-4-yloxy)benzamido)propylcarbamate], the EC50 lay within 1 to 10 µM.

Molecule `O=C(NC1CCN(Cc2ccccc2)CC1)c1ccc(OC2CCN(Cc3ccccn3)CC2)c(F)c1` [5-39, N-(1-benzylpiperidin-4-yl)-3-fluoro-4-(1-(pyridin-2-ylmethyl)piperidin-4-yloxy)benzamide] had an EC50 of 1 to 10 µM.

One may read the EC50 as the midpoint of the concentration-response curve. Read a high EC50 as weaker potency.

Values taken from US9511058B2, “Methods for using carboxamide, sulfonamide and amine compounds” (Rigel Pharmaceuticals, Inc., priority 2010, dated 2016).
